In ChEMBL document CHEMBL5241130, “Integrating a phenotypic screening with a structural simplification strategy to identify 4-phenoxy-quinoline derivatives to potently disrupt the mitotic localization of Aurora kinase B” (Bioorg Med Chem, 2023):
Calls of active or inactive are those of the source. No cut-off for these calls is given here.

Experiments:
[1] = system: HCT-116; experiment: Cytotoxicity against human HCT-116 cells assessed as cell growth inhibition incubated for 3 days by MTT assay; assay type: functional, cell-based; conditions: time 3.0 day
[2] = system: NCI-H23; experiment: Cytotoxicity against human NCI-H23 cells assessed as cell growth inhibition incubated for 3 days by MTT assay; assay type: functional, cell-based; conditions: time 3.0 day
[3] = Half life in Wistar rat at 2 mg/kg, iv measured for 24 hrs by LC-MS/MS analysis; assay type: ADME, organism-based; conditions: in vivo
[4] = Clearance in Wistar rat at 2 mg/kg, iv measured after 24 hrs by LC-MS/MS analysis; assay type: ADME, organism-based; conditions: in vivo
[5] = target: Discoidin domain-containing receptor 2 (Homo sapiens, UniProt Q16832); experiment: Inhibition of DDR2 (unknown origin) assessed as inhibition of DDR2 interaction with DNA-bound ligand by qPCR analysis
[6] = Drug degradation in mouse plasma at 1 to 10 uM incubated for 2 hrs by LC-MS analysis; assay type: ADME, cell-free; conditions: dose 1-10 µM, read-out: Drug degradation
[7] = Toxicity in BALB/c nude mouse xenografted with human HCT-116 cells assessed as animal's well being at 50 mg/kg, po bid for 7 days; assay type: organism-based; conditions: in vivo, 168 h, time 7 day
[8] = system: Tyrosine-protein kinase ABL1 (Homo sapiens), P00519 [Q252H]; experiment: Inhibition of human recombinant ABL1 Q252H mutant at 2 uM by KINOMEscan assay
[9] = Ratio of drug uptake in tumor of BALB/c nude mouse xenografted with human HCT-116 cells at 50 mg/kg, po bid for 7 days and measured at 6 hrs post-last drug administration to MEC for disruption of mitotic localization of AURKB in human RPE-MYC H2B-GFP cells assessed as induction of mitotic arrest measured after 24 hrs
[10] = Apparent volume of distribution in Wistar rat at 2 mg/kg, iv measured after 24 hrs by LC-MS/MS analysis; assay type: ADME, organism-based; conditions: in vivo, read-out: Vz
[11] = Drug uptake in tumor of BALB/c nude mouse xenografted with human HCT-116 cells at 50 mg/kg, po bid for 7 days and measured at 6 hrs post-last drug administration by LC-MS/MS analysis; assay type: ADME, organism-based, Neoplasm; conditions: time 7 day, read-out: Drug uptake
[12] = Plasma concentration in BALB/c nude mouse xenografted with human HCT-116 cells at 50 mg/kg, po bid for 7 days and measured at 12 hrs post-last drug administration by LC-MS/MS analysis; assay type: ADME, organism-based; conditions: time 7 day
[13] = system: Tyrosine-protein kinase ABL1 (Homo sapiens), P00519 [H396P]; experiment: Inhibition of human recombinant ABL1 H396P mutant at 2 uM by KINOMEscan assay
[14] = target: Aurora kinase B (Homo sapiens) (UniProt Q96GD4); experiment: Disruption of mitotic localization of AURKB in human RPE-MYC cells expressing BCL2 assessed as mitotic index at 40 nM measured after 6 hrs by fluorescence high content cell imaging analysis (reference value: 5.3%); assay type: cell-based
[15] = Dose normalized AUC (0 to infinity) in Wistar rat at 2 mg/kg, iv by LC-MS/MS analysis; assay type: ADME, organism-based; conditions: in vivo
[16] = target: Aurora kinase B (Homo sapiens) (UniProt Q96GD4); experiment: Disruption of mitotic localization of AURKB in human RPE-MYC cells expressing BCL2 assessed as disruption of PLK1 localization at spindle mid-zone at 40 nM measured after 6 hrs by immunofluorescence staining analysis; assay type: cell-based
[17] = Dose normalized AUC (0 to infinity) in Wistar rat at 20 mg/kg, po by LC-MS/MS analysis; assay type: ADME, organism-based; conditions: in vivo
[18] = target: Aurora kinase B (Homo sapiens) (UniProt Q96GD4); experiment: Inhibition of AURKB in human RPE-MYC cells expressing BCL2 assessed as inhibition of histone H3 phosphorylation at Ser10 residue at 40 nM measured after 6 hrs by immunofluorescence staining analysis; assay type: cell-based
[19] = system: Mus musculus; experiment: Induction of polyploidy in BALB/c nude mouse xenografted with human HCT-116 cells assessed as increase in polyploid cells in tumor at 50 mg/kg, po bid for 7 days by immunohistochemical staining based analysis relative to control; assay type: functional; conditions: time 7 day
[20] = target: Aurora kinase B (Homo sapiens) (UniProt Q96GD4); experiment: Disruption of mitotic localization of AURKB in human RPE-MYC H2B-GFP cells assessed as induction of mitotic arrest measured after 24 hrs by fluorescence high content cell imaging analysis; assay type: cell-based
[21] = system: A549; experiment: Cytotoxicity against human A549 cells assessed as cell growth inhibition incubated for 3 days by MTT assay; assay type: functional, cell-based; conditions: time 3.0 day
[22] = target: Serine/threonine-protein kinase PLK4 (Homo sapiens) (UniProt O00444); experiment: Inhibition of PLK4 (unknown origin) by bio-chip based analysis
[23] = Apparent volume of distribution in Wistar rat at 20 mg/kg, po measured for 24 hrs by LC-MS/MS analysis; assay type: ADME, organism-based; conditions: in vivo
[24] = target: Aurora kinase B (Homo sapiens) (UniProt Q96GD4); experiment: Disruption of mitotic localization of AURKB in human RPE-MYC H2B-GFP cells assessed as induction of polyploidy by fluorescence high content cell imaging analysis relative to control; assay type: cell-based
[25] = system: Tyrosine-protein kinase ABL1 (Homo sapiens), P00519 [F317L]; experiment: Inhibition of human recombinant ABL1 F317L mutant at 2 uM by KINOMEscan assay
[26] = Ratio of drug uptake in tumor of BALB/c nude mouse xenografted with human HCT-116 cells at 50 mg/kg, po bid for 7 days and measured at 6 hrs post-last drug administration to MEC for Disruption of mitotic localization of AURKB in human RPE-MYC H2B-GFP cells assessed as induction of polyploidy
[27] = target: Serine/threonine-protein kinase PLK2 (Homo sapiens) (UniProt Q9NYY3); experiment: Inhibition of PLK2 (unknown origin) by bio-chip based analysis
[28] = system: HeLa; experiment: Cytotoxicity against human HeLa cells assessed as cell growth inhibition incubated for 3 days by MTT assay; assay type: functional, cell-based; conditions: time 3.0 day
[29] = target: Receptor-type tyrosine-protein kinase FLT3 (Homo sapiens, UniProt P36888); experiment: Inhibition of FLT3 (unknown origin); assay type: toxicity
[30] = target: Serine/threonine-protein kinase PLK1 (Homo sapiens) (UniProt P53350); experiment: Inhibition of PLK1 (unknown origin) by bio-chip based analysis
[31] = target: Rho-associated protein kinase 1 (Homo sapiens) (UniProt Q13464); experiment: Inhibition of ROCK1 (unknown origin) by bio-chip based analysis
[32] = Drug degradation in PBS buffer at pH 7.4 measured after 72 hrs by LC-MS analysis; assay type: physicochemical; conditions: read-out: Drug degradation
[33] = target: Aurora kinase B (Homo sapiens) (UniProt Q96GD4); experiment: Disruption of kinetochore localization of AURKB during anaphase of human RPE-MYC cells expressing BCL2 at 40 nM measured after 6 hrs by immunofluorescence staining analysis; assay type: cell-based
[34] = Plasma concentration in BALB/c nude mouse xenografted with human HCT-116 cells administered as single dose and measured after 6 hrs by LC-MS/MS analysis; assay type: ADME
[35] = Cmax in Wistar rat at 20 mg/kg, po measured for 24 hrs by LC-MS/MS analysis; assay type: ADME, organism-based; parameters: time 24 hrs, dose 20 mg/kg, route po; conditions: in vivo

Aurora kinase B (Homo sapiens), sequence (Q96GD4 whole entry): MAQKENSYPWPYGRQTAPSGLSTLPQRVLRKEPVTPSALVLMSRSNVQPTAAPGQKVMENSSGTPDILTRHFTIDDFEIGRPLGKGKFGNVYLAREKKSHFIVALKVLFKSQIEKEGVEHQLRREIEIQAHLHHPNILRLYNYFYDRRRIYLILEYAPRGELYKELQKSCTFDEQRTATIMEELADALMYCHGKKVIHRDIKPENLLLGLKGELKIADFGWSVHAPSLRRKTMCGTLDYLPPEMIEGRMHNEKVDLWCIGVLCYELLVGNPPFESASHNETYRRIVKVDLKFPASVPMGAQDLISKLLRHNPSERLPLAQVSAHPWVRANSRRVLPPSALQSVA
Rho-associated protein kinase 1 (Homo sapiens), sequence (Q13464 2-1354 limits assumed): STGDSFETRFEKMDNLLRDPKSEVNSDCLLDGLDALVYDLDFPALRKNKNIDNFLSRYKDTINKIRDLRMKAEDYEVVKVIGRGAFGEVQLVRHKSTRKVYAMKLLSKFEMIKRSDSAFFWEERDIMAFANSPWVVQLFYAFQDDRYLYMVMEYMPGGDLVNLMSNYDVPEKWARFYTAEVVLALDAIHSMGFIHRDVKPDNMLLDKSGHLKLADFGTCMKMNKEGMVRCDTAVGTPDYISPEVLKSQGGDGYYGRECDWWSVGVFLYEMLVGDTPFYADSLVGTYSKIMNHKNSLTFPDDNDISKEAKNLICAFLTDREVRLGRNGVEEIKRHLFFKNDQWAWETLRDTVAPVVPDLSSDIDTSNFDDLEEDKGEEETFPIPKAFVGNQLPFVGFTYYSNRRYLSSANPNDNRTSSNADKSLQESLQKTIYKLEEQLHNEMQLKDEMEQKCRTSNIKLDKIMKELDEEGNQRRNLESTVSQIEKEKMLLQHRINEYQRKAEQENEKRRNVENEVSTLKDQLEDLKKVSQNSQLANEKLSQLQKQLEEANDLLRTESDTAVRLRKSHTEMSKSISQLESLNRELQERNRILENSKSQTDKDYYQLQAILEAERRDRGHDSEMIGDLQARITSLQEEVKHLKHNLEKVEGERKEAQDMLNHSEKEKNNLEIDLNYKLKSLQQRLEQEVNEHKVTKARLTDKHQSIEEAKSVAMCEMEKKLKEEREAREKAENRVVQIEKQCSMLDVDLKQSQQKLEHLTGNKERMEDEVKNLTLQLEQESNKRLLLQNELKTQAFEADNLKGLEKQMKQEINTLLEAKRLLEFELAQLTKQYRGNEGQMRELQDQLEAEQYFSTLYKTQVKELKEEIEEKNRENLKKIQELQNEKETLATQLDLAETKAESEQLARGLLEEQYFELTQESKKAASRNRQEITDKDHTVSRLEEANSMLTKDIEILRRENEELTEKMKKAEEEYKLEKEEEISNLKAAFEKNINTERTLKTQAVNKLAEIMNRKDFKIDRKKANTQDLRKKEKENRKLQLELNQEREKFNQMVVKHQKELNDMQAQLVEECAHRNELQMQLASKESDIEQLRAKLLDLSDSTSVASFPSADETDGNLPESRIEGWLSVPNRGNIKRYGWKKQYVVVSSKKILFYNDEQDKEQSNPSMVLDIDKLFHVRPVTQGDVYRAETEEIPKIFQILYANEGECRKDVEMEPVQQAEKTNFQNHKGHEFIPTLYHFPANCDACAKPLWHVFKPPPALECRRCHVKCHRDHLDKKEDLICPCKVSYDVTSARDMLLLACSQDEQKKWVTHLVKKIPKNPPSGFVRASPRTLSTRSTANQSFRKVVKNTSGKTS
Discoidin domain-containing receptor 2, sequence (Q16832 whole entry, the tested form may be a part): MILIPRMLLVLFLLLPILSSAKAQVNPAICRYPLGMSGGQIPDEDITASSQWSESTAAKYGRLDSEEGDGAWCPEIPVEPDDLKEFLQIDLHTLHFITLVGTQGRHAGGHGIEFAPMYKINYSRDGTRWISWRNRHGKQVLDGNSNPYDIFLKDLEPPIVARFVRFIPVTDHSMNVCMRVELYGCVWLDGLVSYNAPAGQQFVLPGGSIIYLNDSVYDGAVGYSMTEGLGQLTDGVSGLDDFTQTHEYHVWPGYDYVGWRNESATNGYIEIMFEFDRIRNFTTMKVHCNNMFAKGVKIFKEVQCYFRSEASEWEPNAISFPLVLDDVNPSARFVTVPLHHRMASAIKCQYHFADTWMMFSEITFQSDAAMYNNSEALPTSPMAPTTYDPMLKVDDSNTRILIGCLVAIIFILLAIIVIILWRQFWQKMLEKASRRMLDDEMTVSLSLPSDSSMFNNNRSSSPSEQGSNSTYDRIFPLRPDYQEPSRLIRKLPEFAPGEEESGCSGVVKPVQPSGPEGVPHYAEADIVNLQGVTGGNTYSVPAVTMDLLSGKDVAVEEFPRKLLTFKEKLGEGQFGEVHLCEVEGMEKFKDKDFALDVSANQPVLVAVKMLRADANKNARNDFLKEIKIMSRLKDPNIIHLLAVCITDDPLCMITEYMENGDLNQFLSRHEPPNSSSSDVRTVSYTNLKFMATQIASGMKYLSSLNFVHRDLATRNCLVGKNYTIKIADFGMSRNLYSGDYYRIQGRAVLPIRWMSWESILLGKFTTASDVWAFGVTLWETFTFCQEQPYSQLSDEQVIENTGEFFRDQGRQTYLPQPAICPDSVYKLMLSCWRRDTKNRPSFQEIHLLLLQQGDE
Receptor-type tyrosine-protein kinase FLT3, sequence (P36888 whole entry): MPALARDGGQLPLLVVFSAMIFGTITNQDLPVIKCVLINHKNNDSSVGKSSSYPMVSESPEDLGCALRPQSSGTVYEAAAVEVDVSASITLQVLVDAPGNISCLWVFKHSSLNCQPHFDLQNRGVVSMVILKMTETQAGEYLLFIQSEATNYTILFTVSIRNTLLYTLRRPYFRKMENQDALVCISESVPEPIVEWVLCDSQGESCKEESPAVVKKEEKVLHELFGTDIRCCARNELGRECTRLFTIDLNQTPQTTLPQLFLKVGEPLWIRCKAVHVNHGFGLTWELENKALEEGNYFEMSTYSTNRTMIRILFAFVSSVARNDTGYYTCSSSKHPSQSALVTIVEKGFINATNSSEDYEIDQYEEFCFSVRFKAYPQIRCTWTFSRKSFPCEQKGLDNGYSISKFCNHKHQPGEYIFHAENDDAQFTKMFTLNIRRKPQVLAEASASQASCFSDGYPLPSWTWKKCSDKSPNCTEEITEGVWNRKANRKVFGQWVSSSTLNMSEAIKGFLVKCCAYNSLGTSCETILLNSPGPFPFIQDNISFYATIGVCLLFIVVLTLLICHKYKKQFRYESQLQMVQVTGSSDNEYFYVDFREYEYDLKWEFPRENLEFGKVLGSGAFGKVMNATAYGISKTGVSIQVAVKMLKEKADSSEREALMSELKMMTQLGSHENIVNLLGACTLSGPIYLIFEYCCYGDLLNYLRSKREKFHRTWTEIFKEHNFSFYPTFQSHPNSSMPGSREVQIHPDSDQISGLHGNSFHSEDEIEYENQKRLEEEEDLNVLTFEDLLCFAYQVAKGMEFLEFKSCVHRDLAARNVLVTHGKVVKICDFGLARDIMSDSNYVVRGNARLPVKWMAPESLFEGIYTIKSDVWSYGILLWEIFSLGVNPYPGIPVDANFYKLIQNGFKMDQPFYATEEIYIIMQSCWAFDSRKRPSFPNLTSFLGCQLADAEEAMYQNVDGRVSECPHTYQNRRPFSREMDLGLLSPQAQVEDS
Serine/threonine-protein kinase PLK4 (Homo sapiens), sequence (O00444 whole entry): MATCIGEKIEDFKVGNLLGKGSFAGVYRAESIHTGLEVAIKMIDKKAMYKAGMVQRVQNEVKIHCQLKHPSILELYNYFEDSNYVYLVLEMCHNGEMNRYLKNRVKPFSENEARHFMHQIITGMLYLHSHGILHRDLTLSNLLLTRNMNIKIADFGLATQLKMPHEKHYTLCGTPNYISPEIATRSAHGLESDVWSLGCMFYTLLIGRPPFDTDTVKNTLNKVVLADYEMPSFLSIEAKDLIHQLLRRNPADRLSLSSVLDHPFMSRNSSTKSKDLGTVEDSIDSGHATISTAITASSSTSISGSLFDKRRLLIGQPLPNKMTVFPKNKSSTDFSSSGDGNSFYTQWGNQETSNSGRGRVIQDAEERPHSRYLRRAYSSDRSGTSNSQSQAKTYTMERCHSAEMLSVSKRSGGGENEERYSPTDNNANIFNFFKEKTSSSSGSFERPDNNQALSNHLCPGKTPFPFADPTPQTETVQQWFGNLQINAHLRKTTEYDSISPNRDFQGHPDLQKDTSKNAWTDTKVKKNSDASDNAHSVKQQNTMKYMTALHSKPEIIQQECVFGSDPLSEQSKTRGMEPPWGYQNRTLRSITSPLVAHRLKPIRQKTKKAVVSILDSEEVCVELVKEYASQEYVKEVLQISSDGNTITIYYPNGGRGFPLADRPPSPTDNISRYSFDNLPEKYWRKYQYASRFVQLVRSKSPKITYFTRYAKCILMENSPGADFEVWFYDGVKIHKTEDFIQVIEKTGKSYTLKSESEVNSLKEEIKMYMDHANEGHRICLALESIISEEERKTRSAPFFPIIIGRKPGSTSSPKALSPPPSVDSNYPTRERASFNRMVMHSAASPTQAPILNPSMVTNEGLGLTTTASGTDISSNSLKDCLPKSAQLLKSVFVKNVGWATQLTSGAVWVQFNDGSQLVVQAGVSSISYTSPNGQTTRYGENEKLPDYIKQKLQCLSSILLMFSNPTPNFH

half-life [3]: 1.09 h | clearance [4]: 29.3 mL/min/kg | IC50 [5]: 225 nM | metabolised at 2 h, up to 10 µM [6]: 0% | inhibition [8]: Active | Vd [10]: 2.78 L/kg | concentration at 168 h [11]: 239 ng/mL | concentration at 168 h [12]: 3.27 ng/mL | inhibition [13]: Active | Activity [14]: 15.3% | AUC/dose [15]: 517.74 ng·h/mL/mg/kg | Activity [16]: Active | AUC/dose [17]: 149.54 ng·h/mL/mg/kg | inhibition [18]: inactive | MEC [20]: 0.01 µM | inhibition [22]: inactive | Vz [23]: 15.41 L/kg | Activity [24]: 100% | inhibition [25]: Active | inhibition [27]: inactive | inhibition [30]: inactive | inhibition [31]: inactive | degraded at 72 h [32]: 0% | Activity [33]: Active | concentration at 6 h [34]: 213 ng/mL | Cmax [35]: 3140 ng/mL
SMILES: COc1cc(NC(C)=O)cc(Oc2ccnc3ccc(OC)cc23)c1
Activity [1]: Active | Activity [2]: Active | Activity [7]: Non-Toxic | Ratio [9]: 70 | fold change (FC) [19]: 1.7 | Activity [21]: Active | Ratio [26]: 70 | Activity [28]: Active | inhibition (INH) [29]: Not Active
